# Results reported in the supplement of paper PMC4862054.
# Experiments:
# Settings in all cases: incubation time: 72 h
# [1] = system: HCC1143; assay: normalised response (% of control), CellTox Green; higher = less cell death (100 = DMSO, 0 = benzethonium chloride kill control)
# Outline: (§1)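 Values are normalised signals, each belonging to one concentration of the series. Breast cancer cells (20 µl suspension) were seeded into 384-well plates with compound at 5 concentrations in 10-fold steps over a compound-specific 10,000-fold range and incubated 72 h. Readouts were CellTox Green fluorescence (485/520 nm), then CellTiter-Glo luminescence after 10 min at room temperature, with each plate set to 0.1 % DMSO as 100 and a positive kill control as 0.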
# [2] = system: HCC1937; assay: as above
# Outline: as §1
# [3] = system: CAL-148; assay: as above
# Outline: as §1
# [4] = system: MDA-MB-231; assay: as above
# Outline: as §1
# [5] = system: BT-474; assay: as above
# Outline: as §1
# [6] = system: MFM-223; assay: as above
# Outline: as §1
# [7] = system: DU-4475; assay: as above
# Outline: as §1
# [8] = system: MCF-10A; assay: as above
# Outline: as §1
# [9] = system: BT-549; assay: as above
# Outline: as §1
# [10] = system: HCC1599; assay: as above
# Outline: as §1
# [11] = system: MDA-MB-468; assay: as above
# Outline: as §1
# [12] = system: MDA-MB-436; assay: as above
# Outline: as §1
# [13] = system: CAL-51; assay: as above
# Outline: as §1
# [14] = system: Hs578T; assay: as above
# Outline: as §1
# [15] = system: CAL-85-1; assay: as above
# Outline: as §1
# [16] = system: CAL-120; assay: as above
# Outline: as §1
# [17] = system: MDA-MB-453; assay: as above
# Outline: as §1
# [18] = system: SK-BR-3; assay: normalised response (% of control), CellTiter-Glo; higher = more viable cells (100 = DMSO, 0 = benzethonium chloride kill control)
# Protocol: (§2)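 DSRT, 72 h incubation, CellTox Green / CellTiter-Glo readout. Signal is normalised to DMSO and benzethonium chloride controls. Value is the normalised response at dose 3.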
# [19] = system: HCC1143; assay: as above
# Protocol: as §2
# [20] = system: HCC1937; assay: as above
# Protocol: as §2
# [21] = system: CAL-148; assay: as above
# Protocol: as §2
# [22] = system: MDA-MB-231; assay: as above
# Protocol: as §2
# [23] = system: BT-474; assay: as above
# Protocol: as §2
# [24] = system: MFM-223; assay: as above
# Protocol: as §2
# [25] = system: DU-4475; assay: as above
# Protocol: as §2
# [26] = system: MCF-10A; assay: as above
# Protocol: as §2
# [27] = system: BT-549; assay: as above
# Protocol: as §2
# [28] = system: HCC1599; assay: as above
# Protocol: as §2
# [29] = system: MDA-MB-468; assay: as above
# Protocol: as §2
# [30] = system: MDA-MB-436; assay: as above
# Protocol: as §2
# [31] = system: HDQ-P1; assay: as above
# Protocol: as §2
# [32] = system: CAL-51; assay: as above
# Protocol: as §2
# [33] = system: Hs578T; assay: as above
# Protocol: as §2
# [34] = system: CAL-85-1; assay: as above
# Protocol: as §2
# [35] = system: CAL-120; assay: as above
# Protocol: as §2
# [36] = system: MDA-MB-453; assay: as above
# Protocol: as §2
# [37] = system: HDQ-P1; assay: normalised response (% of control), CellTox Green; higher = less cell death (100 = DMSO, 0 = benzethonium chloride kill control)
# Outline: as §1
SMILES,normalised response [1] [%],normalised response [2] [%],normalised response [3] [%],normalised response [4] [%],normalised response [5] [%],normalised response [6] [%],normalised response [7] [%],normalised response [8] [%],normalised response [9] [%],normalised response [10] [%],normalised response [11] [%],normalised response [12] [%],normalised response [13] [%],normalised response [14] [%],normalised response [15] [%],normalised response [16] [%],normalised response [17] [%],normalised response [18] [%],normalised response [19] [%],normalised response [20] [%],normalised response [21] [%],normalised response [22] [%],normalised response [23] [%],normalised response [24] [%],normalised response [25] [%],normalised response [26] [%],normalised response [27] [%],normalised response [28] [%],normalised response [29] [%],normalised response [30] [%],normalised response [31] [%],normalised response [32] [%],normalised response [33] [%],normalised response [34] [%],normalised response [35] [%],normalised response [36] [%],normalised response [37] [%]
COc1cc2ncnc(Nc3ccc(F)c(Cl)c3)c2cc1OCCCN1CCOCC1 [Gefitinib] (100 nM),116,87.2,87.3,70.7,100,73.2,99.9,101,94.8,102,92.2,98.3,89.6,68,93.8,83.3,101,94.8,103,93.3,113,106,96.5,101,103,59.3,91.8,82.5,96,104,80.8,90.7,99.5,88,99.4,96.5,–
Nc1cc(C(F)(F)F)c(-c2cc(N3CCOCC3)nc(N3CCOCC3)n2)cn1 [Buparlisib] (100 nM),–,78.7,93.1,78.2,99,96.7,98.6,102,98.1,93.5,163,85.7,94.8,104,109,96.8,91,91.2,99,98,101,93,97.3,86.9,95.9,88.5,110,111,92.1,98.2,95.2,88.8,99.3,101,96.2,97.8,96.4
O=P1(N(CCCl)CCCl)NCCCO1 (stereo unspecified) [Cyclophosphamide] (400 nM),116,93.7,89.6,107,98.5,87.4,99,–,101,98.8,–,104,92.2,84.3,101,102,100,109,98.7,94.6,102,98.3,99,102,105,103,104,111,102,97.1,99.6,93.8,98.9,99.9,97.8,108,–
